According to patent US8895558B2, “Arylpiperazine-containing pyrrole 3-carboxamide derivatives for treating depressive disorders” (Green Cross Corporation, priority 2008, dated 2014):
pIC50: −log10 of the molar value.

Assays:
[1] = molecular target: T1, human recombinant serotonin 5-HT2A receptor (Homo sapiens, UniProt P28223); assay: Binding affinity for serotonin 5-HT2A receptor ([3H]Ketanserin); conditions: CHO-K1 expressed receptor, 1 nM [3H]Ketanserin
T1 construct: purchased PerkinElmer Life and Analytical Sciences, USA; host or cells: CHO-K1
Experimental: Receptor binding affinities of the compounds for serotonin receptors were measured by the method described in the literature [Park W K et al., Pharmacol Biochem Behav. 2005, 82(2), 361-372].
For serotonin 5-HT2A binding, an aliquot of human recombinant serotonin 5-HT2A receptor (PerkinElmer Life and Analytical Sciences, USA) expressed in CHO-K1 cells (5 ug/well) and 1 nM [^3H]Ketanserin (PerkinElmer) were used in the presence of mianserin (20 uM) as nonspecific. The reaction mixture was incubated for 60 min at 27 using 50 mM Tris-HCl (pH 7.4) buffer containing 4 mM CaCl2 and 0.1% ascorbic acid, and harvested through filtermate A glass fiber filter (Wallac, Finland) presoaked in 0.5% polyethyleneimine (PEI) by microbeta filtermate-96 harvester (PerkinElmer) to terminate the reaction, and then washed with ice cold 50 mM Tris-HCl buffer solution (pH 7.4). The filter was then covered with MeltiLex, sealed in a sample bag, dried in an oven. The radioactivity retained in the filter was finally counted using MicroBeta Plus (Wallac).
(§1) The binding affinity (IC50) of a compound for the receptor was calculated by computerized nonlinear regression analysis (GraphPad Prism Program, San Diego, USA) using 7-8 varied concentrations of the compound run in duplicate tubes.

[2] = molecular target: T2, human recombinant 5-HT2C receptor (Homo sapiens, UniProt P28335); assay: Binding affinity for serotonin 5-HT2C receptor ([3H]Mesulergine); conditions: CHO-K1 membranes, 1.3 nM [3H]Mesulergine
T2 construct: purchased PerkinElmer
T2 sequence (P28335 33-458): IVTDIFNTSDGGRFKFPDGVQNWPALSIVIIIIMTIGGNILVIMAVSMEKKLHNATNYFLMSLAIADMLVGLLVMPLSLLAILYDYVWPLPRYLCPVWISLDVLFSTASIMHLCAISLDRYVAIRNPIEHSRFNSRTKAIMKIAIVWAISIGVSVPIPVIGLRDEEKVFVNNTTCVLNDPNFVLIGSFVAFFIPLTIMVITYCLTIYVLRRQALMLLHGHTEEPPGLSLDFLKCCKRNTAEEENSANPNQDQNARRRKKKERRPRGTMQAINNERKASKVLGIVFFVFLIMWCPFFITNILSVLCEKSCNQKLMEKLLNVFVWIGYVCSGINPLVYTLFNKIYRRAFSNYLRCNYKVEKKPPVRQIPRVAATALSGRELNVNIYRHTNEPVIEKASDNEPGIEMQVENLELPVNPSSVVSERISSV
Experimental: Receptor binding affinities of the compounds for serotonin receptors were measured by the method described in the literature [Park W K et al., Pharmacol Biochem Behav.
as §1
Nonspecific binding was determined using 100 uM mianserin. The incubations were performed for 60 min at 27, and these were terminated by rapid filtration through filtermate. A glass fiber filter presoaked in 0.5% PEI.

[3] = molecular target: T3, human serotonin transporter (Homo sapiens, UniProt P31645); assay: Binding affinity for serotonin transporter ([3H]Imipramine); conditions: HEK-293 membranes, 2 nM [3H]Imipramine
T3 construct: purchased PerkinElmer; host or cells: HEK-293
Experimental: For serotonin transporter binding assays, a reaction mixture with a final volume of 0.25 ml was prepared by mixing a test compound, human serotonin transporter membrane expressed in HEK-293 cells (PerkinElmer, 5 ug/well), [^3H]Imipramine (PerkinElmer, 2 nM) and 50 mM Tris-HCl (pH 7.4) buffer containing 120 mM NaCl and 5 mM KCl. The reaction mixture was incubated for 30 min at 27, and harvested through filtermate. A glass fiber filter presoaked in 0.5% PEI with ice cold 50 mM Tris-HCl buffer (pH 7.4) containing 0.9% NaCl.

T1 sequence (P28223 whole entry): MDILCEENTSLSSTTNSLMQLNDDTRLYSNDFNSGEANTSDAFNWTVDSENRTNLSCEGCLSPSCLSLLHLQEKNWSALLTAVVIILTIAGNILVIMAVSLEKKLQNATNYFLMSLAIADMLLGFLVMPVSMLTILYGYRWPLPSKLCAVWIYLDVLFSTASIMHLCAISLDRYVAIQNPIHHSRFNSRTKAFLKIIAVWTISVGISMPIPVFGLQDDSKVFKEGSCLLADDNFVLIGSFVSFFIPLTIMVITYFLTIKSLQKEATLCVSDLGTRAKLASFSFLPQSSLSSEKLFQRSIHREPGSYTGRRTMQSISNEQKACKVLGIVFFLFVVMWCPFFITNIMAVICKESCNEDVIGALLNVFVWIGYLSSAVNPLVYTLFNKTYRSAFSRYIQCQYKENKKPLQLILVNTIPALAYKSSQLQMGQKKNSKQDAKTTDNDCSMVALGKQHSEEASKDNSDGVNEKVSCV
T3 sequence (P31645 whole entry): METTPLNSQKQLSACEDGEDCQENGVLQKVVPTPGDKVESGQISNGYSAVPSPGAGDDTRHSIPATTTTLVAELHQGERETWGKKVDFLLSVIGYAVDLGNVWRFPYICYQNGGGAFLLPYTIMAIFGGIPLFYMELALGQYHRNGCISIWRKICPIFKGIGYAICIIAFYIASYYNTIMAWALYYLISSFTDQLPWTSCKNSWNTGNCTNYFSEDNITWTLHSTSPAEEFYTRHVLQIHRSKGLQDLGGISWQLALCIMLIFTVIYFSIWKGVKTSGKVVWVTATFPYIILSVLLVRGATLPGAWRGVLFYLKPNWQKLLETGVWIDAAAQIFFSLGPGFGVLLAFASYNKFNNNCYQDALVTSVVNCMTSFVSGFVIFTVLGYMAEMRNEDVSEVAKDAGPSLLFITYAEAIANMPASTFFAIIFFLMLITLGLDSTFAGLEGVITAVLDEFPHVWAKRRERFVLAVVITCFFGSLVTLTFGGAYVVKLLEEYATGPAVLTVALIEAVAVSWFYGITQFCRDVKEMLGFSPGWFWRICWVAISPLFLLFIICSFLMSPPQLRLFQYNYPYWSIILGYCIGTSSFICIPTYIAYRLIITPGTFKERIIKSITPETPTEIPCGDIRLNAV

With Cc1c(C(=O)NCCCN2CCN(c3cccc(Cl)c3)CC2)cc(-c2ccccc2)n1C [Example 1, N-(3-(4-(3-chlorophenyl)piperazin-1-yl)propyl)-1,2-dimethyl-5-phenyl-1H-pyrrole-3-carboxamide] the pIC50 [1] was 7.04, the pIC50 [2] was 6.80 and the pIC50 [3] was 7.95.

With Cc1cccc(N2CCN(CCCNC(=O)c3cc(-c4ccccc4)n(C)c3C)CC2)c1C [Example 3, N-(3-(4-(2,3-dimethylphenyl)piperazin-1-yl)propyl)-1,2-dimethyl-5-phenyl-1H-pyrrole-3-carboxamide] the pIC50 [1] was 7.24, the pIC50 [2] was 6.88 and the pIC50 [3] was 7.93.

For CCn1c(-c2ccccc2)cc(C(=O)NCCCN2CCN(c3cccc(Cl)c3)CC2)c1C [Example 4, N-(3-(4-(3-chlorophenyl)piperazin-1-yl)propyl)-1-ethyl-2-methyl-5-phenyl-1H-pyrrole-3-carboxamide], the pIC50 [1] was 7.04, the pIC50 [2] was 6.72 and the pIC50 [3] was 7.59.

In the case of CCn1c(-c2ccccc2)cc(C(=O)NCCCN2CCN(c3cccc(C)c3C)CC2)c1C [Example 5, N-(3-(4-(2,3-dimethylphenyl)piperazin-1-yl)propyl)-1-ethyl-2-methyl-5-phenyl-1H-pyrrole-3-carboxamide], the pIC50 [1] was 7.12, the pIC50 [2] was 6.86 and the pIC50 [3] was 7.44.

Compound CCCn1c(-c2ccccc2)cc(C(=O)NCCCN2CCN(c3cccc(Cl)c3)CC2)c1C [Example 6, N-(3-(4-(3-chlorophenyl)piperazin-1-yl)propyl)-2-methyl-5-phenyl-1-propyl-1H-pyrrole-3-carboxamide] has a pIC50 [1] of 6.72, a pIC50 [2] of 6.56 and a pIC50 [3] of 7.03.

Cc1c(C(=O)NCCCN2CCN(c3cccc(Cl)c3Cl)CC2)cc(-c2ccccc2)n1C [Example 10, N-(3-(4-(2,3-dichlorophenyl)piperazin-1-yl)propyl)-1,2-dimethyl-5-phenyl-1H-pyrrole-3-carboxamide] gave a pIC50 [1] of 7.34, a pIC50 [2] of 7.92 and a pIC50 [3] of 7.21.

With CCn1c(-c2ccccc2)cc(C(=O)NCCCN2CCN(c3cccc(Cl)c3Cl)CC2)c1C [Example 11, N-(3-(4-(2,3-dichlorophenyl)piperazin-1-yl)propyl)-1-ethyl-2-methyl-5-phenyl-1H-pyrrole-3-carboxamide] the pIC50 [1] was 6.42, the pIC50 [2] was 7.18 and the pIC50 [3] was 6.74.

Work on CCCn1c(-c2ccccc2)cc(C(=O)NCCCN2CCN(c3cccc(Cl)c3Cl)CC2)c1C [Example 12, N-(3-(4-(2,3-dichlorophenyl)piperazin-1-yl)propyl)-2-methyl-5-phenyl-1-propyl-1H-pyrrole-3-carboxamide] yielded a pIC50 [1] of 6.49, a pIC50 [2] of 6.20 and a pIC50 [3] of 6.38.

With Cc1c(C(=O)NCCCN2CCN(c3cccc(Cl)c3Cl)CC2)cc(-c2ccccc2)n1N1CCCCC1 [Example 13, N-(3-(4-(2,3-dichlorophenyl)piperazin-1-yl)propyl)-2-methyl-5-phenyl-1-(piperidin-1-yl)-1H-pyrrole-3-carboxamide] the pIC50 [1] was 7.17, the pIC50 [2] was 6.10 and the pIC50 [3] was 6.53.

Compound Cc1c(C(=O)NCCCN2CCN(c3cccc(Cl)c3)CC2)cc(-c2ccccc2)n1-c1ccc(F)cc1 [Example 14, N-(3-(4-(3-chlorophenyl)piperazin-1-yl)propyl)-1-(4-fluorophenyl)-2-methyl-5-phenyl-1H-pyrrole-3-carboxamide] has a pIC50 [1] of 7.64, a pIC50 [2] of 6.35 and a pIC50 [3] of 7.10.

Compound Cc1cccc(N2CCN(CCCNC(=O)c3cc(-c4ccccc4)n(-c4ccc(F)cc4)c3C)CC2)c1C [Example 15, N-(3-(4-(2,3-dimethylphenyl)piperazin-1-yl)propyl)-1-(4-fluorophenyl)-2-methyl-5-phenyl-1H-pyrrole-3-carboxamide] has a pIC50 [1] of 8.16, a pIC50 [2] of 6.79 and a pIC50 [3] of 7.27.

With Cc1c(C(=O)NCCCN2CCN(c3cccc(Cl)c3Cl)CC2)cc(-c2ccccc2)n1-c1ccc(F)cc1 [Example 16, N-(3-(4-(2,3-dichlorophenyl)piperazin-1-yl)propyl)-1-(4-fluorophenyl)-2-methyl-5-phenyl-1H-pyrrole-3-carboxamide] the pIC50 [1] was 8.39, the pIC50 [2] was 6.33 and the pIC50 [3] was 6.58.

Cc1cccc(N2CCN(CCCNC(=O)c3cc(-c4ccccc4)n(Cc4ccccc4)c3C)CC2)c1C [Example 18, 1-Benzyl-N-(3-(4-(2,3-dimethylphenyl)piperazin-1-yl)propyl)-2-methyl-5-phenyl-1H-pyrrole-3-carboxamide] was tested, and the pIC50 [1] was 6.65, the pIC50 [2] was 6.53 and the pIC50 [3] was 7.84.

Compound Cc1c(C(=O)NCCCN2CCN(c3cccc(Cl)c3Cl)CC2)cc(-c2ccccc2)n1Cc1ccccc1 [Example 19, 1-Benzyl-N-(3-(4-(2,3-dichlorophenyl)piperazin-1-yl)propyl)-2-methyl-5-phenyl-1H-pyrrole-3-carboxamide] has a pIC50 [1] of 6.45, a pIC50 [2] of 6.66 and a pIC50 [3] of 6.90.

For Cc1c(C(=O)NCCCN2CCN(c3cccc(Cl)c3)CC2)cc(-c2ccccc2)n1CC1CCCCC1 [Example 20, N-(3-(4-(3-chlorophenyl)piperazin-1-yl)propyl)-1-(cyclohexylmethyl)-2-methyl-5-phenyl-1H-pyrrole-3-carboxamide], the pIC50 [1] was 5.97, the pIC50 [2] was 6.21 and the pIC50 [3] was 6.67.

Cc1c(C(=O)NCCN2CCN(c3cccc(Cl)c3Cl)CC2)cc(C(C)(C)C)n1C [Example 169, 5-tert-butyl-N-(2-(4-(2,3-dichlorophenyl)piperazin-1-yl)ethyl)-1,2-dimethyl-1H-pyrrole-3-carboxamide] showed a pIC50 [1] of 7.24.

Work on Cc1c(Cl)cccc1N1CCN(CCNC(=O)c2cc(-c3ccccc3)n(C)c2C)CC1 [Example 184, N-(2-(4-(3-chloro-2-methylphenyl)piperazin-1-yl)ethyl)-1,2-dimethyl-5-phenyl-1H-pyrrole-3-carboxamide] yielded a pIC50 [1] of 6.82 and a pIC50 [2] of 6.63.

In the case of Cc1ccc2cccc(N3CCN(CCNC(=O)c4cc(-c5ccccc5)n(C)c4C)CC3)c2n1 [Example 185, 1,2-dimethyl-N-(2-(4-(2-methylquinolin-8-yl)piperazin-1-yl)ethyl)-5-phenyl-1H-pyrrole-3-carboxamide], the pIC50 [1] was 6.12 and the pIC50 [2] was 6.26.

For Cc1c(C(=O)NCCN2CCN(c3cccc(Cl)c3F)CC2)cc(C(C)(C)C)n1C [Example 186, 5-tert-butyl-N-(2-(4-(3-chloro-2-fluorophenyl)piperazin-1-yl)ethyl)-1,2-dimethyl-1H-pyrrole-3-carboxamide], the pIC50 [1] was 6.92 and the pIC50 [2] was 6.53.

With Cc1c(Cl)cccc1N1CCN(CCNC(=O)c2cc(C(C)(C)C)n(C)c2C)CC1 [Example 187, 5-tert-butyl-N-(2-(4-(3-chloro-2-methylphenyl)piperazin-1-yl)ethyl)-1,2-dimethyl-1H-pyrrole-3-carboxamide] the pIC50 [1] was 7.27 and the pIC50 [2] was 6.68.

With Cc1ccc2cccc(N3CCN(CCNC(=O)c4cc(C(C)(C)C)n(C)c4C)CC3)c2n1 [Example 188, 5-tert-butyl-1,2-dimethyl-N-(2-(4-(2-methylquinolin-8-yl)piperazin-1-yl)ethyl)-1H-pyrrole-3-carboxamide] the pIC50 [1] was 5.83 and the pIC50 [2] was 5.82.

Compound Cc1cccc(N2CCN(CCNC(=O)c3cc(C(C)(C)C)n(C)c3C)CC2)c1C [Example 189, 5-tert-butyl-N-(2-(4-(2,3-dimethylphenyl)piperazin-1-yl)ethyl)-1,2-dimethyl-1H-pyrrole-3-carboxamide] has a pIC50 [2] of 6.64.

For CCn1c(C(C)(C)C)cc(C(=O)NCCCN2CCN(c3cccc(C)c3C)CC2)c1C [Example 190, 5-tert-butyl-N-(3-(4-(2,3-dimethylphenyl)piperazin-1-yl)propyl)-1-ethyl-2-methyl-1H-pyrrole-3-carboxamide], the pIC50 [1] was 6.41 and the pIC50 [2] was 5.94.
